Converted amounts (≈) assume the structure as drawn. Like-named read-outs stand apart in the source and are kept apart here.
Tests used:
[1] = tested on: Enterococcus faecalis ATCC29212; test: Qualitative evaluation of antimicrobial activity (inhibition zone, spot on agar); format: cell-based; parameters: key: (+) inhibited bacterial growth; (-) did not inhibit bacterial growth; conditions: 0.06 g/2 mL DMSO, 5 µL spot
Procedure: (§1) For testing the antimicrobial/antibiofilm activity, the concentration of the studied compounds was identical to 0.06 g/2 mL DMSO. 0.5 Standard McFarland suspension was used, which was inoculated onto Mueller Hinton agar plates, (Remel, Lenexa, KS, USA), 5 µL of each compound was spotted and incubated overnight at 37 °C. Antimicrobial activity was observed as zones of inhibition formed around the spot.

[2] = tested on: Staphylococcus aureus ATCC25923; test: as above; format: cell-based; parameters: key: (+) inhibited bacterial growth; (-) did not inhibit bacterial growth; conditions: 0.06 g/2 mL DMSO, 5 µL spot
Procedure: as §1

[3] = tested on: Pseudomonas aeruginosa ATCC27853; test: as above; format: cell-based; parameters: key: (+) inhibited bacterial growth; (-) did not inhibit bacterial growth; conditions: 0.06 g/2 mL DMSO, 5 µL spot
Procedure: as §1

[4] = tested on: Escherichia coli ATCC25922; test: as above; format: cell-based; parameters: key: (+) inhibited bacterial growth; (-) did not inhibit bacterial growth; conditions: 0.06 g/2 mL DMSO, 5 µL spot
Procedure: as §1

[5] = tested on: Enterococcus faecalis ATCC29212; test: MIC by serial microdilution in liquid medium; format: cell-based; conditions: Enterococcus faecalis, ATCC29212; 24 h, 37 °C; read-out: Minimum inhibitory concentration, Enterococcus faecalis ATCC29212
Procedure: (§2) The minimum inhibitory concentrations (MIC) were determined by the serial microdilution method in a liquid medium (Tryptone Soy Broth), on 96-well plates. Serial binary dilutions of the compound stock solution (10 mg/mL in DMSO) were carried out in 90 µL of culture medium and 10 µL of 10^6 CFU/mL (Colony Forming Units) microbial suspension. Each test included a positive control (wells with culture medium and microbial suspension) and a negative control for medium sterility. After incubation at 37 °C for 24 h the plates were visually examined, and optical density was measured at 620 nm. […] The MIC value (µg/mL) for the chemical compound was determined by the concentration in the final well without bacterial growth. All experiments were performed in triplicate.

[6] = tested on: Staphylococcus aureus ATCC25923; test: MIC by serial microdilution in liquid medium; format: cell-based; conditions: 24 h, 37 °C; for MIC: Staphylococcus aureus, ATCC25923, read-out: Minimum inhibitory concentration, Staphylococcus aureus ATCC25923
Procedure: as §2

[7] = tested on: Pseudomonas aeruginosa ATCC27853; test: MIC by serial microdilution in liquid medium; format: cell-based; conditions: Pseudomonas aeruginosa, ATCC27853; 24 h, 37 °C; read-out: Minimum inhibitory concentration, Pseudomonas aeruginosa ATCC27853
Procedure: as §2

[8] = tested on: Escherichia coli ATCC25922; test: MIC by serial microdilution in liquid medium; format: cell-based; conditions: 24 h, 37 °C; for MIC: Escherichia coli, ATCC25922, read-out: Minimum inhibitory concentration, Escherichia coli ATCC25922
Procedure: as §2

[9] = tested on: HEp-2 epithelial tumor cells; test: MTT cell viability / anti-tumor activity; conditions: for viability at 3.1 µg/mL / viability at 6.25 µg/mL / viability at 12.5 µg/mL / viability at 25 µg/mL / viability at 50 µg/mL / IC50: Homo sapiens; for viability at 3.1 µg/mL / viability at 6.25 µg/mL / viability at 12.5 µg/mL / viability at 25 µg/mL / viability at 50 µg/mL: read-out: Cell viability on Hep2 cells (%); for IC50: read-out: IC50 µg/mL on HEp-2 Cells 48 h, HEp-2 epithelial tumor cells, MTT, 48 h
[10] = MTT cell viability / cytotoxicity on normal fibroblasts; format: cell-based, mouse; conditions: mouse, read-out: Cell viability on NCTC cells (%)
Text: (§3) Merck chemicals were utilized.
(§4) Untreated cells were used as control, considered 100% viable cells.

[11] = tested on: NCTC (clone 929) mouse fibroblast cells; test: as above; format: cell-based; conditions: Mus musculus, NCTC clone 929; NCTC normal fibroblasts, MTT, 48 h
Text: as §3, §4

[12] = tested on: Staphylococcus aureus ATCC25923; test: Antibiofilm assay (crystal violet), MBIC; format: cell-based; conditions: 24 h, 37 °C; for minimal effective concentration: Staphylococcus aureus, ATCC25923, read-out: Minimum biofilm inhibition concentration (MBIC), Staphylococcus aureus ATCC25923
Procedure: (§5) Microorganisms were grown in 96-well plates filled with nutrient broth along with test substances, followed by incubation at 37 °C for 24 h. Plates were cleaned and rinsed thrice using SPW solution (sterile physiological water). After that, the attached cells were treated with 110 μL of methanol for 5 min, and then the methanol was removed by turning it upside down. […] Once stained, the solution was removed, and the plates were washed with running tap water. […] The antimicrobial/antibiofilm activity of the compounds was evaluated against two antibiotics, commercial formulations of metronidazole and nitrofurantoin.

[13] = tested on: Pseudomonas aeruginosa ATCC27853; test: Antibiofilm assay (crystal violet), MBIC; format: cell-based; conditions: 37 °C; for minimal effective concentration: Pseudomonas aeruginosa, ATCC27853, 24 h, read-out: Minimum biofilm inhibition concentration (MBIC), Pseudomonas aeruginosa ATCC27853
Procedure: as §5

[14] = tested on: Escherichia coli ATCC25922; test: Antibiofilm assay (crystal violet), MBIC; format: cell-based; conditions: 37 °C; for minimal effective concentration: Escherichia coli, ATCC25922, 24 h, read-out: Minimum biofilm inhibition concentration (MBIC), Escherichia coli ATCC25922
Procedure: as §5

[15] = tested on: Enterococcus faecalis ATCC29212; test: Antibiofilm assay (crystal violet), MBIC; format: cell-based; conditions: Enterococcus faecalis, ATCC29212, 24 h, 37 °C, read-out: Minimum biofilm inhibition concentration (MBIC), Enterococcus faecalis ATCC29212
Procedure: as §5

| Compound | Qualitative antimicrobial activity, Enterococcus faecalis ATCC29212 [1] | Qualitative antimicrobial activity, Staphylococcus aureus ATCC25923 [2] | Qualitative antimicrobial activity, Pseudomonas aeruginosa ATCC27853 [3] | Qualitative antimicrobial activity, Escherichia coli ATCC25922 [4] | MIC [5] [µg/mL] | MIC [6] [µg/mL] | MIC [7] [µg/mL] | MIC [8] [µg/mL] | viability at 3.1 µg/mL ([9]; HEp-2, 24 h) [%] | viability at 6.25 µg/mL ([9]; HEp-2, 24 h) [%] | viability at 12.5 µg/mL ([9]; HEp-2, 24 h) [%] | viability at 25 µg/mL ([9]; HEp-2, 24 h) [%] | viability at 50 µg/mL ([9]; HEp-2, 24 h) [%] | viability at 3.1 µg/mL ([9]; HEp-2, 48 h) [%] | viability at 6.25 µg/mL ([9]; HEp-2, 48 h) [%] | viability at 12.5 µg/mL ([9]; HEp-2, 48 h) [%] | viability at 25 µg/mL ([9]; HEp-2, 48 h) [%] | viability at 50 µg/mL ([9]; HEp-2, 48 h) [%] | IC50 ([9]; HEp-2, 48 h) [µg/mL] | viability at 24 h, 3.1 µg/mL [10] [%] | further results |
| --- | --- | --- | --- | --- | --- | --- | --- | --- | --- | --- | --- | --- | --- | --- | --- | --- | --- | --- | --- | --- | --- |
| Cc1nn(CN(Cn2nc(C)c([N+](=O)[O-])c2C)c2ccc(Cl)cc2)c(C)c1[N+](=O)[O-] [5b, N,N-bis-[(3,5-dimetyl-4-nitro-1H-pyrazol-1-yl)-methyl]-4-chloroaniline] | + | + | + | + | 460 ± 0.54 (≈ 1060 µM) | 460 (≈ 1060 µM) | 460 ± 0.58 (≈ 1060 µM) | 460 (≈ 1060 µM) | 105 ± 1.52 | 104 ± 2.25 | 102 ± 3.76 | 90.8 ± 2.84 | 65.3 ± 2.02 | 110 ± 1.25 | 94.7 ± 3.8 | 87.1 ± 0.92 | 74.8 ± 0.33 | 54.6 ± 1.17 | 26.6 to 47.3 (≈ 61.3 to 109 µM) | 99.1 ± 3.42 | melting point: 132 to 134 °C; Minimum inhibitory concentration, Staphylococcus aureus ATCC25923 [6]: 460 ± 0.01 µg/mL (≈ 1060 µM); Minimum inhibitory concentration, Escherichia coli ATCC25922 [8]: 460 ± 0.27 µg/mL (≈ 1060 µM); IC50 µg/mL on HEp-2 Cells 48 h ([9]; HEp-2 epithelial tumor cells, MTT, 48 h): >50 µg/mL; viability at 48 h, 3.1 µg/mL [10]: 100 ± 2.53%; viability at 24 h, 6.25 µg/mL [10]: 103 ± 3.06%; viability at 48 h, 6.25 µg/mL [10]: 94.9 ± 2.14%; viability at 24 h, 12.5 µg/mL [10]: 98.8 ± 3.47%; viability at 48 h, 12.5 µg/mL [10]: 84 ± 3.77%; viability at 24 h, 25 µg/mL [10]: 70 ± 2.51%; viability at 48 h, 25 µg/mL [10]: 55.2 ± 1.6%; viability at 24 h, 50 µg/mL [10]: 48.6 ± 1.35%; viability at 48 h, 50 µg/mL [10]: 28.1 ± 0.35%; IC50 [11]: 29.8 ± 0.32 µg/mL (≈ 68.7 µM); Minimum biofilm inhibition concentration (MBIC), Staphylococcus aureus ATCC25923 [12]: 460 ± 0.01 µg/mL; minimal effective concentration [12]: 460 µg/mL; Minimum biofilm inhibition concentration (MBIC), Pseudomonas aeruginosa ATCC27853 ([13]; 24 h): 460 ± 0.51 µg/mL; minimal effective concentration [13]: 460 µg/mL; Minimum biofilm inhibition concentration (MBIC), Escherichia coli ATCC25922 ([14]; 24 h): 460 ± 0.03 µg/mL; minimal effective concentration [14]: 460 µg/mL |
| Cc1nn(CN(Cn2nc(C)c([N+](=O)[O-])c2C)c2ccc(I)cc2)c(C)c1[N+](=O)[O-] [5d, N,N-bis-[(3,5-dimetyl-4-nitro-1H-pyrazol-1-yl)-methyl]-4-iodoaniline] | - | - | - | - | 1870 ± 0.05 (≈ 3560 µM) | 1870 ± 0.07 (≈ 3560 µM) | 1870 ± 0.04 (≈ 3560 µM) | 1870 ± 0.04 (≈ 3560 µM) | 88.45 ± 0.28 | 89.15 ± 0.73 | 91.41 ± 0.69 | 89.86 ± 0.48 | 89.86 ± 0.16 | 96.17 ± 0.13 | 78.61 ± 0.67 | 61.51 ± 0.34 | 45.75 ± 0.33 | 20.8 | 26.61 ± 0.11 (≈ 50.7 µM) | 103 ± 1.49 | viability at 48 h, 3.1 µg/mL [10]: 93.58 ± 0.71%; viability at 24 h, 6.25 µg/mL [10]: 108 ± 2.4%; viability at 48 h, 6.25 µg/mL [10]: 103%; viability at 24 h, 12.5 µg/mL [10]: 106 ± 2.05%; viability at 48 h, 12.5 µg/mL [10]: 102 ± 3.03%; viability at 24 h, 25 µg/mL [10]: 98.4 ± 3.87%; viability at 48 h, 25 µg/mL [10]: 95.8 ± 2.12%; viability at 24 h, 50 µg/mL [10]: 83 ± 2.9%; viability at 48 h, 50 µg/mL [10]: 88.3 ± 1.55%; IC50 [11]: > 50 µg/mL; minimal effective concentration [15]: 1870 ± 0.15 µg/mL; minimal effective concentration [12]: 930 ± 0.15 µg/mL; minimal effective concentration [13]: 930 ± 0.15 µg/mL; minimal effective concentration [14]: 1870 ± 0.15 µg/mL |
